In ChEMBL document CHEMBL3885881, “DrugMatrix”:

Organism: Rattus norvegicus
Assay: DrugMatrix - Regimen: Daily Repeat
Type: toxicity, organism-based, Sprague-Dawley
Design: regimen Daily Repeat, gender Male, age 6-8 weeks
Details: in vivo, po, route oral GAVAGE, vehicle .5 % CMC; for ABSOLUTE BASOPHIL / ABSOLUTE EOSINOPHIL / ABSOLUTE LYMPHOCYTE / ABSOLUTE MONOCYTE / ABSOLUTE SEGMENTED NEUTROPHIL / BASOPHIL / EOSINOPHIL / ERYTHROCYTE COUNT / HEMATOCRIT / HEMOGLOBIN / LEUKOCYTE COUNT / LYMPHOCYTE / MEAN CORPUSCULAR HEMOGLOBIN / MEAN CORPUSCULAR HEMOGLOBIN CONCENTRATION / MEAN CORPUSCULAR VOLUME / MONOCYTE / NEUTROPHIL / NUCLEATED RED BLOOD CELLS / PLATELET COUNT: tissue Blood; for ALANINE AMINOTRANSFERASE / ALBUMIN / ALKALINE PHOSPHATASE / ASPARTATE AMINOTRANSFERASE / BLOOD UREA NITROGEN / CARBON DIOXIDE / CHLORIDE / CHOLESTEROL / CREATINE PHOSPHOKINASE / CREATININE / GLUCOSE / LACTATE DEHYDROGENASE / LIPASE / PHOSPHORUS / POTASSIUM / SODIUM / TOTAL BILIRUBIN / TOTAL PROTEIN / URIC ACID: tissue Plasma
[1] = 60 mg/kg, 72 h, dose level Low, time 3 day
[2] = 60 mg/kg, 120 h, dose level Low, time 5 day
[3] = 435 mg/kg, 72 h, dose level High, time 3 day
[4] = 435 mg/kg, 120 h, dose level High, time 5 day

## CCCCCCCCNC(C)C(O)c1ccc(SC(C)C)cc1 (configuration not stated) [SULOCTIDIL]
[1]
  ABSOLUTE BASOPHIL: 0 CELLS/uL
  ABSOLUTE EOSINOPHIL: 0 CELLS/uL
  ABSOLUTE LYMPHOCYTE: 12874.67 CELLS/uL
  ABSOLUTE MONOCYTE: 326.33 CELLS/uL
  ABSOLUTE SEGMENTED NEUTROPHIL: 2365.67 CELLS/uL
  BASOPHIL: 0%
  EOSINOPHIL: 0%
  ERYTHROCYTE COUNT: 5.66 x10E6/uL
  HEMATOCRIT: 34.83%
  HEMOGLOBIN: 13.2 G/DL
  LEUKOCYTE COUNT: 15.57 x10E3/uL
  LYMPHOCYTE: 81.33%
  MEAN CORPUSCULAR HEMOGLOBIN: 23.33 pg
  MEAN CORPUSCULAR HEMOGLOBIN CONCENTRATION: 37.93 G/DL
  MEAN CORPUSCULAR VOLUME: 61.57 fL
  MONOCYTE: 2.33%
  NEUTROPHIL: 16.33%
  NUCLEATED RED BLOOD CELLS: 0 /100WBC
  PLATELET COUNT: 1204 x10E3/uL
  ALANINE AMINOTRANSFERASE: 56.67 u/L
  ALBUMIN: 4.23 G/DL
  ALKALINE PHOSPHATASE: 425.33 u/L
  ASPARTATE AMINOTRANSFERASE: 91.67 u/L
  BLOOD UREA NITROGEN: 18 mg/dL
  CARBON DIOXIDE: 25 mmol/L
  CHLORIDE: 101.33 MEQ/L
  CHOLESTEROL: 80 mg/dL
  CREATINE PHOSPHOKINASE: 410.67 u/L
  CREATININE: 0.23 mg/dL
  GLUCOSE: 140.33 mg/dL
  LACTATE DEHYDROGENASE: 416.33 u/L
  LIPASE: 10.33 u/L
  PHOSPHORUS: 14.3 mg/dL
  POTASSIUM: 5.93 MEQ/L
  SODIUM: 145.47 MEQ/L
  TOTAL BILIRUBIN: 0.17 mg/dL
  TOTAL PROTEIN: 6.27 G/DL
  URIC ACID: 1.4 mg/dL
[2]
  ABSOLUTE BASOPHIL: 0 CELLS/uL
  ABSOLUTE EOSINOPHIL: 0 CELLS/uL
  ABSOLUTE LYMPHOCYTE: 10938.33 CELLS/uL
  ABSOLUTE MONOCYTE: 387.67 CELLS/uL
  ABSOLUTE SEGMENTED NEUTROPHIL: 1740.67 CELLS/uL
  BASOPHIL: 0%
  EOSINOPHIL: 0%
  ERYTHROCYTE COUNT: 5.48 x10E6/uL
  HEMATOCRIT: 33.37%
  HEMOGLOBIN: 13.03 G/DL
  LEUKOCYTE COUNT: 13.07 x10E3/uL
  LYMPHOCYTE: 83.67%
  MEAN CORPUSCULAR HEMOGLOBIN: 23.83 pg
  MEAN CORPUSCULAR HEMOGLOBIN CONCENTRATION: 39.1 G/DL
  MEAN CORPUSCULAR VOLUME: 61.07 fL
  MONOCYTE: 3%
  NEUTROPHIL: 13.33%
  NUCLEATED RED BLOOD CELLS: 0 /100WBC
  PLATELET COUNT: 1209.67 x10E3/uL
  ALANINE AMINOTRANSFERASE: 49.33 u/L
  ALBUMIN: 4.03 G/DL
  ALKALINE PHOSPHATASE: 405.67 u/L
  ASPARTATE AMINOTRANSFERASE: 76 u/L
  BLOOD UREA NITROGEN: 16.67 mg/dL
  CARBON DIOXIDE: 29.33 mmol/L
  CHLORIDE: 98.67 MEQ/L
  CHOLESTEROL: 65.67 mg/dL
  CREATINE PHOSPHOKINASE: 223 u/L
  CREATININE: 0.21 mg/dL
  GLUCOSE: 141.33 mg/dL
  LACTATE DEHYDROGENASE: 112 u/L
  LIPASE: 9.67 u/L
  PHOSPHORUS: 13.63 mg/dL
  POTASSIUM: 6.46 MEQ/L
  SODIUM: 145.77 MEQ/L
  TOTAL BILIRUBIN: 0.1 mg/dL
  TOTAL PROTEIN: 5.97 G/DL
  URIC ACID: 1.43 mg/dL
[3]
  ABSOLUTE BASOPHIL: 0 CELLS/uL
  ABSOLUTE EOSINOPHIL: 0 CELLS/uL
  ABSOLUTE LYMPHOCYTE: 12119.33 CELLS/uL
  ABSOLUTE MONOCYTE: 277.33 CELLS/uL
  ABSOLUTE SEGMENTED NEUTROPHIL: 1536.67 CELLS/uL
  BASOPHIL: 0%
  EOSINOPHIL: 0%
  ERYTHROCYTE COUNT: 5.33 x10E6/uL
  HEMATOCRIT: 33.43%
  HEMOGLOBIN: 12.9 G/DL
  LEUKOCYTE COUNT: 13.93 x10E3/uL
  LYMPHOCYTE: 87%
  MEAN CORPUSCULAR HEMOGLOBIN: 24.23 pg
  MEAN CORPUSCULAR HEMOGLOBIN CONCENTRATION: 38.6 G/DL
  MEAN CORPUSCULAR VOLUME: 62.83 fL
  MONOCYTE: 2%
  NEUTROPHIL: 11%
  NUCLEATED RED BLOOD CELLS: 0 /100WBC
  PLATELET COUNT: 1170.67 x10E3/uL
  ALANINE AMINOTRANSFERASE: 123 u/L
  ALBUMIN: 4.1 G/DL
  ALKALINE PHOSPHATASE: 384.67 u/L
  ASPARTATE AMINOTRANSFERASE: 116 u/L
  BLOOD UREA NITROGEN: 16 mg/dL
  CARBON DIOXIDE: 24.67 mmol/L
  CHLORIDE: 102 MEQ/L
  CHOLESTEROL: 71.33 mg/dL
  CREATINE PHOSPHOKINASE: 478.67 u/L
  CREATININE: 0.2 mg/dL
  GLUCOSE: 126.67 mg/dL
  LACTATE DEHYDROGENASE: 279.67 u/L
  LIPASE: 10.67 u/L
  PHOSPHORUS: 11.9 mg/dL
  POTASSIUM: 5.78 MEQ/L
  SODIUM: 145.13 MEQ/L
  TOTAL BILIRUBIN: 0.1 mg/dL
  TOTAL PROTEIN: 5.8 G/DL
  URIC ACID: 1.2 mg/dL
[4]
  ABSOLUTE BASOPHIL: 0 CELLS/uL
  ABSOLUTE EOSINOPHIL: 49.33 CELLS/uL
  ABSOLUTE LYMPHOCYTE: 11875.33 CELLS/uL
  ABSOLUTE MONOCYTE: 141.33 CELLS/uL
  ABSOLUTE SEGMENTED NEUTROPHIL: 1867.33 CELLS/uL
  BASOPHIL: 0%
  EOSINOPHIL: 0.33%
  ERYTHROCYTE COUNT: 6 x10E6/uL
  HEMATOCRIT: 36.07%
  HEMOGLOBIN: 13.93 G/DL
  LEUKOCYTE COUNT: 13.93 x10E3/uL
  LYMPHOCYTE: 85.33%
  MEAN CORPUSCULAR HEMOGLOBIN: 23.27 pg
  MEAN CORPUSCULAR HEMOGLOBIN CONCENTRATION: 38.67 G/DL
  MEAN CORPUSCULAR VOLUME: 60.1 fL
  MONOCYTE: 1%
  NEUTROPHIL: 13.33%
  NUCLEATED RED BLOOD CELLS: 0 /100WBC
  PLATELET COUNT: 1140 x10E3/uL
  ALANINE AMINOTRANSFERASE: 337 u/L
  ALBUMIN: 3.63 G/DL
  ALKALINE PHOSPHATASE: 249.33 u/L
  ASPARTATE AMINOTRANSFERASE: 188 u/L
  BLOOD UREA NITROGEN: 13.67 mg/dL
  CARBON DIOXIDE: 25 mmol/L
  CHLORIDE: 105 MEQ/L
  CHOLESTEROL: 25 mg/dL
  CREATINE PHOSPHOKINASE: 1012.33 u/L
  CREATININE: 0.12 mg/dL
  GLUCOSE: 128.67 mg/dL
  LACTATE DEHYDROGENASE: 213 u/L
  LIPASE: 8.67 u/L
  PHOSPHORUS: 10.37 mg/dL
  POTASSIUM: 5.67 MEQ/L
  SODIUM: 144.2 MEQ/L
  TOTAL BILIRUBIN: 0.1 mg/dL
  TOTAL PROTEIN: 5.1 G/DL
  URIC ACID: 1.23 mg/dL
